Bridge positions count the residues as written; N and C are the ends. Square brackets hold non-standard residues; d marks the D form. Peptide text beside a SMILES is read from it. * marks the point of attachment. ξ: configuration not given here. Ala(morpholin-4-yl) = N[C@@H](CN1CCOCC1)C(=O)O; Phe(4-COOH) = N[C@@H](Cc1ccc(C(=O)O)cc1)C(=O)O; Bip = N[C@@H](Cc1ccc(-c2ccccc2)cc1)C(=O)O; Phe(3-Me) = Cc1cccc(C[C@H](N)C(=O)O)c1; His(τ-Me) = Cn1cnc(C[C@H](N)C(=O)O)c1; NH(CH2)12COOH = O=C(O)CCCCCCCCCCCCN*; Val(3-OH) = CC(C)(O)[C@H](N)C(=O)O; 4Pal = N[C@@H](Cc1ccncc1)C(=O)O; Cha = N[C@@H](CC1CCCCC1)C(=O)O; Cit = NC(=O)NCCC[C@H](N)C(=O)O; Thr(3ξ) = CC(O)[C@H](N)C(=O)O; Carboxymethyl = O=C(O)C*; Orn = NCCC[C@H](N)C(=O)O; Aun = NCCCCCCCCCCC(=O)O; Dab = NCC[C@H](N)C(=O)O; Dap = NC[C@H](N)C(=O)O; AEEA = NCCOCCOCC(=O)O; ξC = NC(CS)C(=O)O
What follows are compounds tested against T1, PD-1/PD-L1 interaction (PE-labeled human PD-L1-Ig binding to Jurkat cell line over-expressing human PD-1) (Homo sapiens, UniProt Q15116) (assay: Jurkat-PD-1 Cell Binding High-Content Screening Assay (CBA)). Conditions: Jurkat cell line over-expressing human PD-1; PE-labeled PD-L1-Ig 20 nM final; read-out: Jurkat hPD1-PDL1 IC50.
T1 construct: expressed in transfected cells; host or cells: Jurkat
T1 sequence (Q15116 25-288): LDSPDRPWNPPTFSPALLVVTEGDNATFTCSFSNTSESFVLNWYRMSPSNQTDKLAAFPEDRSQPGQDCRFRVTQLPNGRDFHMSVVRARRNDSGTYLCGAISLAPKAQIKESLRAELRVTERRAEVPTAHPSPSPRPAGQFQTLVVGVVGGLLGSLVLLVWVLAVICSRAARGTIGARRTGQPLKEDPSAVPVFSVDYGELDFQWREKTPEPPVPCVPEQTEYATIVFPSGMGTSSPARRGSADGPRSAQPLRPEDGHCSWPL
Format: cell-based
Summary of the method: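 First, compound is added to PD-1-expressing Jurkat cells in serum-containing DMEM and left 2 h at 37° C. Next, PE-conjugated PD-L1-Ig is introduced at 20 nM final concentration for 1 hour. Finally, cells are fixed in 4% paraformaldehyde with Hoechst 33342, washed and imaged.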

IC50 [µM]	Compound
0.0054	Cc1cccc(C[C@@H]2NC(=O)[C@H](CC(=O)O)NC(=O)[C@H](Cc3ccc(OCC(=O)O)cc3)NC(=O)[C@H](CN3CCOCC3)NC(=O)CSC[C@@H](C(=O)N[C@@H](CCN)C(=O)NCCOCCOCC(=O)NCCOCCOCC(=O)NCCCCCCCCCCCCC(=O)O)NC(=O)[C@H](CC(=O)O)NC(=O)[C@H](C(C)(C)O)NC(=O)[C@H](CC3CCCCC3)NC(=O)[C@H](CCN)NC(=O)[C@@H](CC(C)C)NC(=O)[C@H](CCCN)NC(=O)[C@H](Cc3ccc(C(=O)O)cc3)NC(=O)[C@H](Cc3ccc(-c4ccccc4)cc3)NC(=O)[C@H](Cc3ccc(C(=O)O)cc3)NC2=O)c1 [Compound 2899] ({CH2CO}-[Ala(morpholin-4-yl)]Y(Carboxymethyl)D[Phe(3-Me)][Phe(4-COOH)][Bip][Phe(4-COOH)][Orn][dL][Dab][Cha][Val(3-OH)]DC[Dab][AEEA][AEEA]-{NH(CH2)12COOH}; thioether N-14)
0.0406	CC(C)C[C@H]1NC(=O)[C@H](CCCN)NC(=O)[C@H](Cc2ccc(O)cc2)NC(=O)[C@H](Cc2ccc(-c3ccccc3)cc2)NC(=O)[C@H](Cc2ccc(O)cc2)NC(=O)[C@H](Cc2c[nH]c3ccccc23)NC(=O)[C@H](CC(=O)O)NC(=O)[C@H](Cc2ccc(OCC(=O)O)cc2)NC(=O)[C@H](C(C)O)NC(=O)CSC[C@@H](C(=O)N[C@H](CC(N)=O)C(=O)NCCCCCCCCCCC(=O)O)NC(=O)[C@H](CCC(N)=O)NC(=O)[C@H](C(C)C)NC(=O)[C@H](CC2CCCCC2)NC(=O)[C@H](CCN)NC1=O (stereo partly drawn) [Compound 3433] ({CH2CO}-[Thr(3ξ)]Y(Carboxymethyl)DWY[Bip]Y[Orn][dL][Dab][Cha]VQC[dN][Aun]-OH; thioether N-14)
0.0484	CC(C)C[C@H]1NC(=O)[C@H](CCCN)NC(=O)[C@H](C(C)C)NC(=O)[C@H](Cc2ccc(-c3ccccc3)cc2)NC(=O)[C@H](C(C)C)NC(=O)[C@H](Cc2c[nH]c3ccccc23)NC(=O)[C@H](CC(=O)O)NC(=O)[C@H](Cc2ccc(OCC(=O)O)cc2)NC(=O)[C@H](CN)NC(=O)CSCC(C(=O)N[C@H](CO)C(=O)NCCCCCCCCCCC(=O)O)NC(=O)[C@H]([C@@H](C)O)NC(=O)[C@H](C(C)C)NC(=O)[C@H](CC2CCCCC2)NC(=O)[C@H](Cc2cnc[nH]2)NC1=O (stereo partly drawn) [Compound 1123] ({CH2CO}-[Dap]Y(Carboxymethyl)DWV[Bip]V[Orn][dL]H[Cha]VT[ξC][dS][Aun]-OH; thioether N-14)
0.051	CC(C)C[C@H]1NC(=O)[C@H](CCCN)NC(=O)[C@H](C(C)C)NC(=O)[C@H](Cc2ccc(-c3ccccc3)cc2)NC(=O)[C@H](C(C)C)NC(=O)[C@H](Cc2c[nH]c3ccccc23)NC(=O)[C@H](CC(=O)O)NC(=O)[C@H](Cc2ccc(OCC(=O)O)cc2)NC(=O)[C@H](CN)NC(=O)CSC[C@@H](C(=O)N[C@@H](CCCCN)C(=O)NCCCCCCCCCCC(=O)O)NC(=O)[C@H](CCCN)NC(=O)[C@H](C(C)C)NC(=O)[C@H](CC2CCCCC2)NC(=O)[C@H](Cc2c[nH]cn2)NC1=O [Compound 2804] ({CH2CO}-[Dap]Y(Carboxymethyl)DWV[Bip]V[Orn][dL]H[Cha]V[Orn]CK[Aun]-OH; thioether N-14)
0.0193	Cc1cccc(C[C@@H]2NC(=O)[C@H](CC(=O)O)NC(=O)[C@H](Cc3ccc(OCC(=O)O)cc3)NC(=O)[C@H](CN)NC(=O)CSC[C@@H](C(=O)N[C@@H](CCN)C(=O)NCCOCCOCC(=O)NCCCCCCCCCCC(=O)O)NC(=O)[C@@H](CO)NC(=O)[C@H](C(C)C)NC(=O)[C@H](CC3CCCCC3)NC(=O)[C@H](CCN)NC(=O)[C@@H](CC(C)C)NC(=O)[C@H](CCCN)NC(=O)[C@H](C(C)C)NC(=O)[C@H](Cc3ccc(-c4ccccc4)cc3)NC(=O)[C@H](Cc3ccc(O)cc3)NC2=O)c1 [Compound 2017] ({CH2CO}-[Dap]Y(Carboxymethyl)D[Phe(3-Me)]Y[Bip]V[Orn][dL][Dab][Cha]V[dS]C[Dab][AEEA][Aun]-OH; thioether N-14)
0.0242	Cc1cccc(C[C@@H]2NC(=O)[C@H](CC(=O)O)NC(=O)[C@H](Cc3ccc(OCC(=O)O)cc3)NC(=O)[C@H](CN)NC(=O)CSC[C@@H](C(=O)N[C@@H](CCN)C(=O)NCCCCCCCCCCC(=O)O)NC(=O)[C@H](CO)NC(=O)[C@H](Cc3cnc[nH]3)NC(=O)[C@H](CC3CCCCC3)NC(=O)[C@H](CCN)NC(=O)[C@@H](CC(C)C)NC(=O)[C@H](CCCN)NC(=O)[C@H](Cc3ccc(OCC(=O)O)cc3)NC(=O)[C@H](Cc3ccc(-c4ccccc4)cc3)NC(=O)[C@H](Cc3ccc(C(=O)O)cc3)NC2=O)c1 [Compound 3705] ({CH2CO}-[Dap]Y(Carboxymethyl)D[Phe(3-Me)][Phe(4-COOH)][Bip]Y(Carboxymethyl)[Orn][dL][Dab][Cha]HSC[Dab][Aun]-OH; thioether N-14)
0.0118	Cc1cccc(C[C@@H]2NC(=O)[C@H](CC(=O)O)NC(=O)[C@H](Cc3ccc(OCC(=O)O)cc3)NC(=O)[C@H](CCCNC(=N)N)NC(=O)CSC[C@@H](C(=O)N[C@@H](CCCCN)C(=O)NCCCCCCCCCCC(=O)O)NC(=O)[C@H](CCCN)NC(=O)[C@H](C(C)C)NC(=O)[C@H](CC3CCCCC3)NC(=O)[C@H](CCN)NC(=O)[C@@H](CC(C)C)NC(=O)[C@H](CCCN)NC(=O)[C@H](CCCNC(N)=O)NC(=O)[C@H](Cc3ccc(-c4ccccc4)cc3)NC(=O)[C@H](C(C)C)NC2=O)c1 [Compound 3474] ({CH2CO}-RY(Carboxymethyl)D[Phe(3-Me)]V[Bip][Cit][Orn][dL][Dab][Cha]V[Orn]CK[Aun]-OH; thioether N-14)
0.0144	CC(C)C[C@H]1NC(=O)[C@H](CCCN)NC(=O)[C@H](C(C)C)NC(=O)[C@H](Cc2ccc(-c3ccccc3)cc2)NC(=O)[C@H](C(C)C)NC(=O)[C@H](Cc2c[nH]c3ccccc23)NC(=O)[C@H](CC(=O)O)NC(=O)[C@H](Cc2ccc(OCC(=O)O)cc2)NC(=O)[C@H](CN)NC(=O)CSC[C@@H](C(=O)NCCOCCOCC(=O)N[C@@H](CCCN)C(=O)NCCCCCCCCCCC(=O)O)NC(=O)[C@H](C(C)O)NC(=O)[C@H](C(C)C)NC(=O)[C@H](CC2CCCCC2)NC(=O)[C@H](CC(N)=O)NC1=O (stereo partly drawn) [Compound 3193] ({CH2CO}-[Dap]Y(Carboxymethyl)DWV[Bip]V[Orn][dL]N[Cha]V[Thr(3ξ)]C[AEEA][Orn][Aun]-OH; thioether N-14)
0.0184	Cc1cccc(C[C@@H]2NC(=O)[C@H](CC(=O)O)NC(=O)[C@H](Cc3ccc(OCC(=O)O)cc3)NC(=O)[C@H](Cc3ccncc3)NC(=O)CSC[C@@H](C(=O)N[C@@H](CCN)C(=O)NCCCCCCCCCCC(=O)O)NC(=O)[C@H](CCCN)NC(=O)[C@H](C(C)C)NC(=O)[C@H](CC3CCCCC3)NC(=O)[C@H](CCN)NC(=O)[C@@H](CC(C)C)NC(=O)[C@H](CCCN)NC(=O)[C@H](Cc3ccc(O)cc3)NC(=O)[C@H](Cc3ccc(-c4ccccc4)cc3)NC(=O)[C@H](C(C)C)NC2=O)c1 [Compound 2706] ({CH2CO}-[4Pal]Y(Carboxymethyl)D[Phe(3-Me)]V[Bip]Y[Orn][dL][Dab][Cha]V[Orn]C[Dab][Aun]-OH; thioether N-14)
0.0169	Cc1cccc(C[C@@H]2NC(=O)[C@H](CC(=O)O)NC(=O)[C@H](Cc3ccc(OCC(=O)O)cc3)NC(=O)[C@H](Cc3cn(C)cn3)NC(=O)CSC[C@@H](C(=O)N[C@@H](CCN)C(=O)NCCCCCCCCCCC(=O)O)NC(=O)[C@H](CCCCN)NC(=O)[C@H](C(C)C)NC(=O)[C@H](CC3CCCCC3)NC(=O)[C@H](CCN)NC(=O)[C@@H](CC(C)C)NC(=O)[C@H](CCCN)NC(=O)[C@H](C(C)C)NC(=O)[C@H](Cc3ccc(-c4ccccc4)cc3)NC(=O)[C@H](C(C)C)NC2=O)c1 [Compound 2037] ({CH2CO}-[His(τ-Me)]Y(Carboxymethyl)D[Phe(3-Me)]V[Bip]V[Orn][dL][Dab][Cha]VKC[Dab][Aun]-OH; thioether N-14)
0.0053	Cc1cccc(C[C@@H]2NC(=O)[C@H](CC(=O)O)NC(=O)[C@H](Cc3ccc(OCC(=O)O)cc3)NC(=O)[C@H](C(C)O)NC(=O)CSC[C@@H](C(=O)NCCOCCOCC(=O)NCCCCCCCCCCC(=O)O)NC(=O)[C@H](CCCCN)NC(=O)[C@H](C(C)C)NC(=O)[C@H](CC3CCCCC3)NC(=O)[C@H](CCN)NC(=O)[C@@H](CC(C)C)NC(=O)[C@H](CCN)NC(=O)[C@H](C(C)C)NC(=O)[C@H](Cc3ccc(-c4ccccc4)cc3)NC(=O)[C@H](C(C)C)NC2=O)c1 (stereo partly drawn) [Compound 3257] ({CH2CO}-[Thr(3ξ)]Y(Carboxymethyl)D[Phe(3-Me)]V[Bip]V[Dab][dL][Dab][Cha]VKC[AEEA][Aun]-OH; thioether N-14)
0.011	Cc1cccc(C[C@@H]2NC(=O)[C@H](CC(=O)O)NC(=O)[C@H](Cc3ccc(O)cc3)NC(=O)[C@@H](CCCNC(=N)N)NC(=O)CSC[C@@H](C(=O)N[C@@H](CCN)C(=O)NCCCCCCCCCCC(=O)O)NC(=O)[C@H](CO)NC(=O)[C@H](C(C)(C)O)NC(=O)[C@H](CC3CCCCC3)NC(=O)[C@H](CCN)NC(=O)[C@@H](CC(C)C)NC(=O)[C@H](CCCN)NC(=O)[C@H](Cc3ccc(OCC(=O)O)cc3)NC(=O)[C@H](Cc3ccc(-c4ccccc4)cc3)NC(=O)[C@H](Cc3ccc(OCC(=O)O)cc3)NC2=O)c1 [Compound 3640] ({CH2CO}-[dR]YD[Phe(3-Me)]Y(Carboxymethyl)[Bip]Y(Carboxymethyl)[Orn][dL][Dab][Cha][Val(3-OH)]SC[Dab][Aun]-OH; thioether N-14)
0.0103	CC(C)C[C@H]1NC(=O)[C@H](CCCN)NC(=O)[C@H](C(C)C)NC(=O)[C@H](Cc2ccc(-c3ccccc3)cc2)NC(=O)[C@H](C(C)C)NC(=O)[C@H](Cc2c[nH]c3ccccc23)NC(=O)[C@H](CC(=O)O)NC(=O)[C@H](Cc2ccc(OCC(=O)O)cc2)NC(=O)[C@H](Cc2ccc(OCC(=O)O)cc2)NC(=O)CSC[C@@H](C(=O)NCCOCCOCC(=O)N[C@@H](CCCCN)C(=O)NCCCCCCCCCCC(=O)O)NC(=O)[C@H](CN)NC(=O)[C@H](C(C)C)NC(=O)[C@H](CC2CCCCC2)NC(=O)[C@H](CCN)NC1=O [Compound 2600] ({CH2CO}-Y(Carboxymethyl)Y(Carboxymethyl)DWV[Bip]V[Orn][dL][Dab][Cha]V[Dap]C[AEEA]K[Aun]-OH; thioether N-14)
